Assay results published in patent publication US9145414B2, “1,2,4-triazine-6-carboxamide derivative” (TAIHO PHARMACEUTICAL CO., LTD., priority 2011, dated 2015).

molecular target: human Syk protein (Homo sapiens (Human), UniProt P43405); assay: Syk kinase inhibition test; type: biochemical; conditions: Table 95; read-out: SYK inhibitory activity IC50
Procedure: Finally, phosphorylated peptides and non-phosphorylated peptides were separated therebetween using LabChip™ 3000 system (Caliper Life Sciences, Inc., excitation wavelength: 488 nm, detection wavelength: 530 nm). Their respective amounts were measured, and the rate of phosphorylation reaction was then determined from the ratio between the amounts. The concentration at which the compound can inhibit 50% phosphorylation reaction is defined as an IC50 value (μM).
Also, known 1,2,4-triazine-6-carboxamide derivatives A, B, and C (WO2000/075113 (A: compound No. 121 and B: compound No. 154) and WO2000/076980 (C: compound No. 39)) were synthesized as control compounds. Their IC50 values (μM) were calculated in the same way as above and then compared with that of the compound of the present invention.

Question: With `NC(=O)c1nnc(N[C@@H]2CCCC[C@@H]2N)nc1Nc1cccc2c1ccn2CCO` [Example 93, 3-(((1R,2S)-2-aminocyclohexyl)amino)-5-((1-(2-hydroxyethyl)-1H-indol-4-yl)amino)-1,2,4-triazine-6-carboxamide] as the compound, how does the IC50 read?
Answer: 670 pM

Question: For `Cn1cc2cc(Nc3nc(N[C@@H]4CCCC[C@@H]4N)nnc3C(N)=O)cc(-c3ccccc3)c2n1` [Example 65, 3-(((1R,2S)-2-aminocyclohexyl)amino)-5-((2-methyl-7-phenyl-2H-indazol-5-yl)amino)-1,2,4-triazine-6-carboxamide], which IC50 is on record?
Answer: 230 pM

Question: For `Cc1cc(Nc2nc(N[C@@H]3CCCC[C@@H]3N)nnc2C(N)=O)cc2cccnc12` [Example 259, 3-(((1R,2S)-2-aminocyclohexyl)amino)-5-((8-methylquinolin-6-yl)amino)-1,2,4-triazine-6-carboxamide], which IC50 is on record?
Answer: 330 pM

Question: How did the IC50 turn out when `Cc1cc(Nc2nc(N[C@@H]3CCCC[C@@H]3N)nnc2C(N)=O)c2ccn([C@H]3CC[C@H](O)CC3)c2c1` [Example 78] was run?
Answer: 530 pM

Question: With `Cn1cc(-c2cc(Nc3nc(N[C@@H]4CCCC[C@@H]4N)nnc3C(N)=O)c3cnn(C)c3c2)cn1` [Example 13, 3-((1R,2S)-2-aminocyclohexylamino)-5-(1-methyl-6-(1-methyl-1H-pyrazol-4-yl)-1H-indazol-4-ylamino)-1,2,4-triazine-6-carboxamide] as the compound, how does the IC50 read?
Answer: 490 pM

Question: With `CCn1ncc2cc(Nc3nc(N[C@H](C)[C@@H](N)COC)nnc3C(N)=O)cc(C)c21` [Example 311, 3-(((2R,3R)-3-amino-4-methoxybutan-2-yl)amino)-5-((1-ethyl-7-methyl-1H-indazol-5-yl)amino)-1,2,4-triazine-6-carboxamide] as the compound, how does the IC50 read?
Answer: 550 pM

Question: How did the IC50 turn out when `Cc1cc(Nc2nc(N[C@@H]3CCCC[C@@H]3N)nnc2C(N)=O)c2ccn(C)c2c1` [Example 60, 3-(((1R,2S)-2-aminocyclohexyl)amino)-5-((1,6-dimethyl-1H-indol-4-yl)amino)-1,2,4-triazine-6-carboxamide] was run?
Answer: 330 pM

Question: `NC(=O)c1nnc(N[C@@H]2CCCC[C@@H]2N)nc1Nc1cc(-c2ncccn2)cs1` [Example 76, 3-(((1R,2S)-2-aminocyclohexyl)amino)-5-((4-(pyrimidin-2-yl)thiophen-2-yl)amino)-1,2,4-triazine-6-carboxamide] was tested. Which IC50 did it give?
Answer: 550 pM

Question: With `Cn1ccc(-n2ccc3c(Nc4nc(NCC5(N)CCC5)nnc4C(N)=O)cccc32)n1` [Example 106, 3-(((1-aminocyclobutyl)methyl)amino)-5-((1-(1-methyl-1H-pyrazol-3-yl)-1H-indol-4-yl)amino)-1,2,4-triazine-6-carboxamide] as the compound, how does the IC50 read?
Answer: 850 pM

Question: `Cn1ccc(-n2ccc3c(Nc4nc(N[C@@H]5CCCC[C@@H]5N)nnc4C(N)=O)cccc32)n1` [Example 25, 3-((1R,2S)-2-aminocyclohexylamino)-5-(1-(1-methyl-1H-pyrazol-3-yl)-1H-indol-4-ylamino)-1,2,4-triazine-6-carboxamide] was tested. Which IC50 did it give?
Answer: 360 pM

Question: For `CCn1ncc2c(Nc3nc(N[C@@H]4CCCC[C@@H]4N)nnc3C(N)=O)cccc21` [Example 107, 3-(((1R,2S)-2-aminocyclohexyl)amino)-5-((1-ethyl-1H-indazol-4-yl)amino)-1,2,4-triazine-6-carboxamide], which IC50 is on record?
Answer: 610 pM

Question: `CC(C)(C)n1cc2cc(Nc3nc(N[C@@H]4CCCC[C@@H]4N)nnc3C(N)=O)cc(-n3cccn3)c2n1` [Example 66, 3-(((1R,2S)-2-aminocyclohexyl)amino)-5-((2-(tert-butyl)-7-(1H-pyrazol-1-yl)-2H-indazol-5-yl)amino)-1,2,4-triazine-6-carboxamide] was tested. Which IC50 did it give?
Answer: 610 pM

Question: For `Cc1cc(Nc2nc(N[C@@H]3CCOC[C@@H]3N)nnc2C(N)=O)cc2cn(C(C)(C)CO)nc12` [Example 99, 3-(((3R,4R)-3-aminotetrahydro-2H-pyran-4-yl)amino)-5-((2-(1-hydroxy-2-methylpropan-2-yl)-7-methyl-2H-indazol-5-yl)amino)-1,2,4-triazine-6-carboxamide], which IC50 is on record?
Answer: 630 pM

Question: With `CCOC[C@H](N)[C@@H](C)Nc1nnc(C(N)=O)c(Nc2cc(C)c3ncccc3c2)n1` [Example 282] as the compound, how does the IC50 read?
Answer: 480 pM

Question: How did the IC50 turn out when `NC(=O)c1nnc(N[C@@H]2CCCC[C@@H]2N)nc1Nc1cccc2nn(C(F)F)cc12` [Example 209] was run?
Answer: 330 pM

Question: For `NC(=O)c1nnc(N[C@@H]2CCCC[C@@H]2N)nc1Nc1cccc2sccc12` [Example 2, 3-((1R,2S)-2-aminocyclohexylamino)-5-(benzo[b]thiophen-4-ylamino)-1,2,4-triazine-6-carboxamide], which IC50 is on record?
Answer: 460 pM

Question: `COC[C@H](N)[C@@H](C)Nc1nnc(C(N)=O)c(Nc2cc(C)c3c(cnn3C(C)C)c2)n1` [Example 284] was tested. Which IC50 did it give?
Answer: 340 pM

Question: For `NC(=O)c1nnc(N[C@@H]2CCCC[C@@H]2N)nc1Nc1ccc2nn(C3CCC3)cc2c1` [Example 11, 3-((1R,2S)-2-aminocyclohexylamino)-5-(2-cyclobutyl-2H-indazol-5-ylamino)-1,2,4-triazine-6-carboxamide], which IC50 is on record?
Answer: 470 pM

Question: `COc1ccc2sc(Nc3nc(N[C@@H]4CCCC[C@@H]4N)nnc3C(N)=O)c(C)c2c1` [Example 48, 3-((1R,2S)-2-aminocyclohexylamino)-5-(5-methoxy-3-methylbenzo[b]thiophen-2-ylamino)-1,2,4-triazine-6-carboxamide] was tested. Which IC50 did it give?
Answer: 270 pM

Question: How did the IC50 turn out when `NC(=O)c1nnc(N[C@@H]2CCCC[C@@H]2N)nc1Nc1cncc(C2CC2)c1` [Example 16, 3-((1R,2S)-2-aminocyclohexylamino)-5-(5-cyclopropylpyridin-3-ylamino)-1,2,4-triazine-6-carboxamide] was run?
Answer: 940 pM

Question: How did the IC50 turn out when `CC(C)(C)n1cc2cc(Nc3nc(N[C@@H]4CCOC[C@@H]4N)nnc3C(N)=O)cc(Cl)c2n1` [Example 100, 3-(((3R,4R)-3-aminotetrahydro-2H-pyran-4-yl)amino)-5-((2-(tert-butyl)-7-chloro-2H-indazol-5-yl)amino)-1,2,4-triazine-6-carboxamide] was run?
Answer: 410 pM

Question: For `NC(=O)c1nnc(N[C@@H]2CCCC[C@@H]2N)nc1Nc1ccc2ncccc2c1` [Example 1, 3-((1R,2S)-2-aminocyclohexylamino)-5-(quinolin-6-ylamino)-1,2,4-triazine-6-carboxamide], which IC50 is on record?
Answer: 400 pM

Question: Which IC50 does the source give for `Cc1cc(Nc2nc(N[C@@H]3CCCC[C@@H]3N)nnc2C(N)=O)cc2cn(C(F)F)nc12` [Example 62, 3-(((1R,2S)-2-aminocyclohexyl)amino)-5-((2-(difluoromethyl)-7-methyl-2H-indazol-5-yl)amino)-1,2,4-triazine-6-carboxamide] here?
Answer: 370 pM

Question: `CCn1ncc2c(C)cc(Nc3nc(N[C@@H]4CCOC[C@@H]4N)nnc3C(N)=O)cc21` [Example 310] was tested. Which IC50 did it give?
Answer: 590 pM

Question: How did the IC50 turn out when `CCn1nc(C)c2cc(Nc3nc(N[C@@H]4CCCC[C@@H]4N)nnc3C(N)=O)ccc21` [Example 56, 3-((1R,2S)-2-aminocyclohexylamino)-5-(1-ethyl-3-methyl-1H-indazol-5-ylamino)-1,2,4-triazine-6-carboxamide] was run?
Answer: 500 pM

Question: `CCn1cc2ccc(Nc3nc(N[C@@H]4CCCCC[C@@H]4N)nnc3C(N)=O)cc2n1` [Example 316, 3-(((1R,2S)-2-aminocycloheptyl)amino)-5-((2-ethyl-2H-indazol-6-yl)amino)-1,2,4-triazine-6-carboxamide] was tested. Which IC50 did it give?
Answer: 310 pM

Question: `[2H]C([2H])([2H])C([2H])([2H])n1ncc2cc(Nc3nc(N[C@@H]4CCCC[C@@H]4N)nnc3C(N)=O)ccc21` [Example 5, 3-((1R,2S)-2-aminocyclohexylamino)-5-(1-(ethyl-d5)-1H-indazol-5-ylamino)-1,2,4-triazine-6-carboxamide] was tested. Which IC50 did it give?
Answer: 520 pM

Question: Which IC50 does the source give for `CCn1nc(C)c2ccc(Nc3nc(N[C@@H]4CCCC[C@@H]4N)nnc3C(N)=O)cc21` [Example 50, 3-((1R,2S)-2-aminocyclohexylamino)-5-(1-ethyl-3-methyl-1H-indazol-6-ylamino)-1,2,4-triazine-6-carboxamide] here?
Answer: 420 pM

Question: For `N#Cc1cc(Nc2nc(N[C@@H]3CCCC[C@@H]3N)nnc2C(N)=O)c2ccsc2c1` [Example 208], which IC50 is on record?
Answer: 400 pM

Question: How did the IC50 turn out when `Cc1cc2c(Nc3nc(N[C@@H]4CCCC[C@@H]4N)nnc3C(N)=O)cccc2n1C1CC1` [Example 33, 3-((1R,2S)-2-aminocyclohexylamino)-5-(1-cyclopropyl-2-methyl-H-indol-4-ylamino)-1,2,4-triazine-6-carboxamide] was run?
Answer: 710 pM

tested on: SU-DHL-6 cells (diffuse large-cell lymphoma cell line); assay: Cell growth inhibition test; type: cell-based; conditions: Homo sapiens, 72 h; SU-DHL-6 cells, 3 days culture, Table 96; read-out: Cell growth inhibition IC50
Procedure: The compound of the present invention was serially diluted with dimethyl sulfoxide and then added to an RPMI1640 medium containing 10% FBS. Each resulting solution was added at a concentration of 100 μl/well to the preceding SU-DHL-6 cell culture plate (final concentration of the compound: 10, 3, 1, 0.3, 0.1, 0.03, 0.01, and 0.003 μM). The cells were cultured at 37° C. for 3 days in an incubator containing 5% CO2. The cells thus cultured were left at room temperature for 30 minutes and then centrifuged at 1500 rpm for 3 minutes using a centrifuge (Hitachi Koki Co., Ltd., Himac CF7D2). A 100 μl aliquot of the supernatant was removed from each well to allow 100 μl of the cell culture solution to remain therein. This 100 μl of the remaining cell culture solution was supplemented with an equal amount of CellTiter-Glo Luminescent Cell Viability Assay (Promega KK, Cat#: G7573), and the mixture was then shaken for 1 minute using a plate mixer. The reaction solution was left in the dark for 10 minutes. Then, luminescence intensity derived from live cells of each well was measured using a microplate reader (PerkinElmer Inc., ARVOsx). […] Likewise, the IC50 values (μM) of the control compounds were also calculated and then compared with that of the compound of the present invention. Rate of cell growth inhibition(%)=(C−T)/C×100 T: luminescence intensity (count per second) of a well supplemented with the test compound C: luminescence intensity (count per second) of a well non-supplemented with the test compound

Question: With `NC(=O)c1nnc(N[C@@H]2CCCC[C@@H]2N)nc1Nc1cccc2c1ccn2CCO` [Example 93, 3-(((1R,2S)-2-aminocyclohexyl)amino)-5-((1-(2-hydroxyethyl)-1H-indol-4-yl)amino)-1,2,4-triazine-6-carboxamide] as the compound, how does the IC50 read?
Answer: 149000 pM

Question: With `Cn1cc2cc(Nc3nc(N[C@@H]4CCCC[C@@H]4N)nnc3C(N)=O)cc(-c3ccccc3)c2n1` [Example 65, 3-(((1R,2S)-2-aminocyclohexyl)amino)-5-((2-methyl-7-phenyl-2H-indazol-5-yl)amino)-1,2,4-triazine-6-carboxamide] as the compound, how does the IC50 read?
Answer: 24000 pM

Question: How did the IC50 turn out when `Cc1cc(Nc2nc(N[C@@H]3CCCC[C@@H]3N)nnc2C(N)=O)cc2cccnc12` [Example 259, 3-(((1R,2S)-2-aminocyclohexyl)amino)-5-((8-methylquinolin-6-yl)amino)-1,2,4-triazine-6-carboxamide] was run?
Answer: 75000 pM

Question: For `Cc1cc(Nc2nc(N[C@@H]3CCCC[C@@H]3N)nnc2C(N)=O)c2ccn([C@H]3CC[C@H](O)CC3)c2c1` [Example 78], which IC50 is on record?
Answer: 85000 pM

Question: For `Cc1cc(Nc2nc(N[C@@H]3CCCC[C@@H]3N)nnc2C(N)=O)c2ccn(C)c2c1` [Example 60, 3-(((1R,2S)-2-aminocyclohexyl)amino)-5-((1,6-dimethyl-1H-indol-4-yl)amino)-1,2,4-triazine-6-carboxamide], which IC50 is on record?
Answer: 106000 pM

Question: How did the IC50 turn out when `Cn1ccc(-n2ccc3c(Nc4nc(N[C@@H]5CCCC[C@@H]5N)nnc4C(N)=O)cccc32)n1` [Example 25, 3-((1R,2S)-2-aminocyclohexylamino)-5-(1-(1-methyl-1H-pyrazol-3-yl)-1H-indol-4-ylamino)-1,2,4-triazine-6-carboxamide] was run?
Answer: 100000 pM

Question: For `CCn1ccc2c(Nc3nc(N[C@@H]4CCCC[C@@H]4N)nnc3C(N)=O)cccc21` [Example 17, 3-((1R,2S)-2-aminocyclohexylamino)-5-(1-ethyl-1H-indol-4-ylamino)-1,2,4-triazine-6-carboxamide], which IC50 is on record?
Answer: 76000 pM
